Reference: ChEMBL document CHEMBL4665917, “Optimization of Versatile Oxindoles as Selective PI3Kδ Inhibitors” (ACS Med Chem Lett, 2020)
Values after ≈ are worked out from the molar mass of the structure shown.

How the values were obtained:
[1] = Oral bioavailability in Beagle dog at 1 mg/kg; assay type: ADME, organism-based, Canis lupus familiaris; conditions: in vivo
[2] = Unbound volume of distribution in Wistar-Han rat at 0.5 mg/kg, iv or 1 mg/kg, po; assay type: ADME, organism-based; conditions: in vivo
[3] = Oral bioavailability in Wistar-Han rat at 1 mg/kg; assay type: ADME, organism-based; conditions: in vivo
[4] = Unbound volume of distribution in Beagle dog at 0.5 mg/kg, iv or 1 mg/kg, po; assay type: ADME, organism-based, Canis lupus familiaris; conditions: in vivo
[5] = Volume of distribution in Wistar-Han rat at 0.5 mg/kg, iv or 1 mg/kg, po; assay type: ADME, organism-based; conditions: in vivo
[6] = Apparent permeability in pig LLC-PK1 cells; assay type: ADME, cell-based, Sus scrofa
[7] = Intrinsic clearance in Beagle dog at 0.5 mg/kg, iv or 1 mg/kg, po; assay type: ADME, organism-based, Canis lupus familiaris; conditions: in vivo
[8] = Half life in Beagle dog at 0.5 mg/kg, iv or 1 mg/kg, po; assay type: ADME, organism-based, Canis lupus familiaris; conditions: in vivo
[9] = Intrinsic clearance in Wistar-Han rat at 0.5 mg/kg, iv or 1 mg/kg, po; assay type: ADME, organism-based; conditions: in vivo
[10] = Clearance in Wistar-Han rat at 0.5 mg/kg, iv or 1 mg/kg, po; assay type: ADME, organism-based; conditions: in vivo
[11] = Volume of distribution in Beagle dog at 0.5 mg/kg, iv or 1 mg/kg, po; assay type: ADME, organism-based, Canis lupus familiaris; conditions: in vivo
[12] = Clearance in Beagle dog at 0.5 mg/kg, iv or 1 mg/kg, po; assay type: ADME, organism-based, Canis lupus familiaris; conditions: in vivo
[13] = Solubility of the compound at pH 7; assay type: physicochemical; conditions: buffer
[14] = AUC in rat at 100 mg/kg; assay type: ADME, organism-based; set-up: dose 100 mg/kg; conditions: in vivo
[15] = Half life in Wistar-Han rat at 0.5 mg/kg, iv or 1 mg/kg, po; assay type: ADME, organism-based; conditions: in vivo
[16] = cells; conditions: Homo sapiens, HeLa
[17] = molecular target: Sodium channel protein type 5 subunit alpha (Homo sapiens, UniProt Q14524); test: Inhibition of Nav1.5 (unknown origin)
Sodium channel protein type 5 subunit alpha, sequence (Q14524 whole entry): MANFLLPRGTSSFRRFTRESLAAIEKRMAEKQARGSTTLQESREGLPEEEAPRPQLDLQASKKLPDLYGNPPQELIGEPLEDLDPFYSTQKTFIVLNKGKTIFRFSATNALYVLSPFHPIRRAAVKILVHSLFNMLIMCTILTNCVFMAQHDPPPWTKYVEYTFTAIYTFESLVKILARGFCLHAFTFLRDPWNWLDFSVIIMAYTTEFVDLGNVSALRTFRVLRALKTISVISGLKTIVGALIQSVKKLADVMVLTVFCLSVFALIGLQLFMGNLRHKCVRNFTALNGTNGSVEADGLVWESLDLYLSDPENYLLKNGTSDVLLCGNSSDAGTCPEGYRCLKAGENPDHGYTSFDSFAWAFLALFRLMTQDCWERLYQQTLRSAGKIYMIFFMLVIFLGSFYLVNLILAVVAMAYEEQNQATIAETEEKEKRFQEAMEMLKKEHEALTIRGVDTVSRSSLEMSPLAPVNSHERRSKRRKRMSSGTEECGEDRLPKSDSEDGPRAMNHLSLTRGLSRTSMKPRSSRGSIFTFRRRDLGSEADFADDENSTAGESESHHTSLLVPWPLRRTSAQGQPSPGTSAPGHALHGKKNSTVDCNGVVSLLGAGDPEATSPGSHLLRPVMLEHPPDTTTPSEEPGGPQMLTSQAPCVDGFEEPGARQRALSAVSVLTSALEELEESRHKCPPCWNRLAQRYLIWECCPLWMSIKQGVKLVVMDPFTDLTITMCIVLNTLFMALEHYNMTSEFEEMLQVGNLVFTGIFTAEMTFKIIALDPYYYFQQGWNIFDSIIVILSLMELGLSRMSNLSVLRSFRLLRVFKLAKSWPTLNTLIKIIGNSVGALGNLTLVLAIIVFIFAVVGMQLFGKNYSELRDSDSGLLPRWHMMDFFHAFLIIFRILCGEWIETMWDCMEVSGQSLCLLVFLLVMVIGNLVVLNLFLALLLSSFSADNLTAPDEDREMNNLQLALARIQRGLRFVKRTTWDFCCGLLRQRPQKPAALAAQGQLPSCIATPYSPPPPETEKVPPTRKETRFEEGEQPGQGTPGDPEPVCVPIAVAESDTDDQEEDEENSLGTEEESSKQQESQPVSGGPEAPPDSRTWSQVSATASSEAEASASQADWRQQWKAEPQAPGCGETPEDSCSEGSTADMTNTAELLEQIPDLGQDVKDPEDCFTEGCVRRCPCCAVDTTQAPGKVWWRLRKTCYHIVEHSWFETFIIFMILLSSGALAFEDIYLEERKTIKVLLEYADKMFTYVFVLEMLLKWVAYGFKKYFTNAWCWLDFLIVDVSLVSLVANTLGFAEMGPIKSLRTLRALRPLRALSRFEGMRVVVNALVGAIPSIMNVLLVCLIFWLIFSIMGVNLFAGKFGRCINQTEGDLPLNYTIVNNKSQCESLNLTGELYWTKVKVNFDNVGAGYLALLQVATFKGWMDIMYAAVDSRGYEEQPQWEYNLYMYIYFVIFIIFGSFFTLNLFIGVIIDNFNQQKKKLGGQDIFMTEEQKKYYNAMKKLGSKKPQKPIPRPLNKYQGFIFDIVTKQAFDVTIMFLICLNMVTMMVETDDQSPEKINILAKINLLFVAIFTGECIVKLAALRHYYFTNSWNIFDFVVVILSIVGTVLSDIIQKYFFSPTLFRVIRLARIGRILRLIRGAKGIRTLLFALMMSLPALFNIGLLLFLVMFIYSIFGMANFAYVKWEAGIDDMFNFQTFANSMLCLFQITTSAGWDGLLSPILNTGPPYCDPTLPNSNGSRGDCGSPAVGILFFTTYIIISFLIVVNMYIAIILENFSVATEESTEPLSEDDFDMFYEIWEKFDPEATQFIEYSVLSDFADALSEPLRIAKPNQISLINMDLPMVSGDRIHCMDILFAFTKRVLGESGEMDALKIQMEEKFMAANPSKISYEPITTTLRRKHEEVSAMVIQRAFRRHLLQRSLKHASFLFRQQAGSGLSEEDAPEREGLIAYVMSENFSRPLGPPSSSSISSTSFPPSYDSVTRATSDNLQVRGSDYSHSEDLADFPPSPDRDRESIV

[18] = molecular target: Voltage-gated inwardly rectifying potassium channel KCNH2 (Homo sapiens, UniProt Q12809); test: Inhibition of human ERG
[19] = molecular target: T1, Cytochrome P450 2C8 (Homo sapiens, UniProt P10632); test: Inhibition of CYP2C8 (unknown origin); assay type: ADME
T1 sequence (P10632 whole entry): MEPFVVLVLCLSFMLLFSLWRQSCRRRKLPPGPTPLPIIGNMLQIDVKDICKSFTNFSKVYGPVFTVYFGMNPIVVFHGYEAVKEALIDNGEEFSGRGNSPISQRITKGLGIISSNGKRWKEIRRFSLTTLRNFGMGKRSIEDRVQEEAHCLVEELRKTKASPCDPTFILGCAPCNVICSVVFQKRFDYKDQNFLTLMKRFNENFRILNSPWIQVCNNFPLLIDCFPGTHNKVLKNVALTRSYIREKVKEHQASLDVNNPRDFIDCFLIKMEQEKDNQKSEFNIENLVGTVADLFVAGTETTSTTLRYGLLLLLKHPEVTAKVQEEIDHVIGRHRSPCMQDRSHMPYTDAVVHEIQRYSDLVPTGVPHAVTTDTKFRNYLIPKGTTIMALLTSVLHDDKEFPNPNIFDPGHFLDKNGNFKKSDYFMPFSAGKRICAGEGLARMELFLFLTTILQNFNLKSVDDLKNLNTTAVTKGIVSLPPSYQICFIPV

[20] = molecular target: Cytochrome P450 2D6 (Homo sapiens, UniProt P10635); test: Inhibition of CYP2D6 (unknown origin); assay type: ADME
[21] = molecular target: Cytochrome P450 3A4 (Homo sapiens, UniProt P08684); test: Inhibition of CYP3A4 (unknown origin); assay type: ADME
[22] = molecular target: Voltage-dependent L-type calcium channel subunit alpha-1C (Homo sapiens, UniProt Q13936); test: Inhibition of Cav1.2 (unknown origin)
Voltage-dependent L-type calcium channel subunit alpha-1C, sequence (Q13936 whole entry): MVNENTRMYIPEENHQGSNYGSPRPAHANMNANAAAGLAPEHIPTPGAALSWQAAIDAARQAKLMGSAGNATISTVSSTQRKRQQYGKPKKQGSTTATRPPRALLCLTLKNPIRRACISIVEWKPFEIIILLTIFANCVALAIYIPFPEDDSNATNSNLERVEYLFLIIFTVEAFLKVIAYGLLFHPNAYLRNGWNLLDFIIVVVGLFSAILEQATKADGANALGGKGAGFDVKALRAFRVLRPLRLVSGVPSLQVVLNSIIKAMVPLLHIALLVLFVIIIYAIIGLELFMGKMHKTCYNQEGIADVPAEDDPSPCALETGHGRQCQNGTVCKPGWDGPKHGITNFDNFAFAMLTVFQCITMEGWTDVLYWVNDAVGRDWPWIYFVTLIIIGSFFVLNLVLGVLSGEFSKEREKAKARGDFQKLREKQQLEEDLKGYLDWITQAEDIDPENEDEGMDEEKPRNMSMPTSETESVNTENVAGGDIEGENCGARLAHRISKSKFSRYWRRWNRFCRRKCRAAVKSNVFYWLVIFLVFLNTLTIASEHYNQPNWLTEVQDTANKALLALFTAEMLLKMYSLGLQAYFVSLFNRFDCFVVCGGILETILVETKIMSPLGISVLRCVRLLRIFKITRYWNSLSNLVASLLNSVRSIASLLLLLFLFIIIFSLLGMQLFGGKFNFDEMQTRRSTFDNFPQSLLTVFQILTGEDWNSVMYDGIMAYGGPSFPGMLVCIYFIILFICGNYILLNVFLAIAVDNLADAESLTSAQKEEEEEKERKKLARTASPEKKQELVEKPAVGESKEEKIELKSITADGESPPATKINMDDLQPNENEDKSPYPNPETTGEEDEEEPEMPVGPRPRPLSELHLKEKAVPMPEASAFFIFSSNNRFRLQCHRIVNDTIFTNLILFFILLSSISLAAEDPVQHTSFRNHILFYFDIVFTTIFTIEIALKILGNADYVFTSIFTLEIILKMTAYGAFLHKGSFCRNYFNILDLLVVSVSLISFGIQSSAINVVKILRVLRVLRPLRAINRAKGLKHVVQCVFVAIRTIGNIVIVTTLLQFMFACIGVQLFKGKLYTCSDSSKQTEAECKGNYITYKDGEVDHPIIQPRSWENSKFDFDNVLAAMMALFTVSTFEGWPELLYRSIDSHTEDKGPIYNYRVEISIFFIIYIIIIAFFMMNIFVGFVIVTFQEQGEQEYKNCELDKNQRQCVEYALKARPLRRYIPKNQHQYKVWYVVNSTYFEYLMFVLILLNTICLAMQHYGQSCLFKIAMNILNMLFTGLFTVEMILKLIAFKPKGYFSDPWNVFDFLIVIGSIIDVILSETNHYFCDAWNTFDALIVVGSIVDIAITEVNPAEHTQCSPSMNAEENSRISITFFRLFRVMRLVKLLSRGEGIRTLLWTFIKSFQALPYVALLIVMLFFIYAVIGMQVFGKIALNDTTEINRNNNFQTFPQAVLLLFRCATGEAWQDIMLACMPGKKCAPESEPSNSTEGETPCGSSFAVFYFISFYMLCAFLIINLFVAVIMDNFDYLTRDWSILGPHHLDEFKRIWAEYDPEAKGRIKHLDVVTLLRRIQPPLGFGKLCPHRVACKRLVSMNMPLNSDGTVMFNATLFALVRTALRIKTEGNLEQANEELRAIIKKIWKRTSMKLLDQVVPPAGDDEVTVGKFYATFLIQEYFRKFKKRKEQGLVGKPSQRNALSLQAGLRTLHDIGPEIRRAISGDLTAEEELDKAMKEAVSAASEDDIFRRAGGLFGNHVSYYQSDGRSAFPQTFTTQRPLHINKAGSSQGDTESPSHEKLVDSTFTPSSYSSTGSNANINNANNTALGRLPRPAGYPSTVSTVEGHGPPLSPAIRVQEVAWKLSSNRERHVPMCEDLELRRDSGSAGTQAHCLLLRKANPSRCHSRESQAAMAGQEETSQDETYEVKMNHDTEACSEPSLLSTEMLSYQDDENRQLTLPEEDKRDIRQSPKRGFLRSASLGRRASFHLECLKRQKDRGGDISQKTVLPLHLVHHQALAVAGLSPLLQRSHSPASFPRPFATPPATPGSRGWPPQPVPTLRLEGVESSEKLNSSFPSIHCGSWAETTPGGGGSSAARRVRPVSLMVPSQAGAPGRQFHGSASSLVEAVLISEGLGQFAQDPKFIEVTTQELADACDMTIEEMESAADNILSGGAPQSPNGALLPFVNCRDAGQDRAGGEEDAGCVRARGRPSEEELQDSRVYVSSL

[23] = AUC in rat at 200 mg/kg; assay type: ADME, organism-based; set-up: dose 200 mg/kg; conditions: in vivo
[24] = molecular target: Cytochrome P450 2C9 (Homo sapiens, UniProt P11712); test: Inhibition of CYP2C9 (unknown origin); assay type: ADME
Cytochrome P450 2C9, sequence (P11712 whole entry): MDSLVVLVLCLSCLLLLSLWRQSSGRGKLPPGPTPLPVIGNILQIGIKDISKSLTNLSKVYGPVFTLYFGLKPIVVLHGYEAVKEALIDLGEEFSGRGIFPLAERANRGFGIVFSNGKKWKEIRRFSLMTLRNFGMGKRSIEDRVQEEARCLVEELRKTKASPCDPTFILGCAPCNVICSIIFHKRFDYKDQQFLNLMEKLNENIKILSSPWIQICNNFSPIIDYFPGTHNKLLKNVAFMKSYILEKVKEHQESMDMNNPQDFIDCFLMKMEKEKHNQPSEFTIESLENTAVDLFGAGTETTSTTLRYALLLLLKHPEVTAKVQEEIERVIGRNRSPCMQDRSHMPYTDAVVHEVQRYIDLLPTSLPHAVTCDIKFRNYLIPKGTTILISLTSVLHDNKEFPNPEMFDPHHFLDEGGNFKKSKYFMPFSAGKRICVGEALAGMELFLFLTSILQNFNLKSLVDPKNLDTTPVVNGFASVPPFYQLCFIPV

[25] = species: Homo sapiens; test: Selectivity index, ratio of IC50 for Inhibition of N-terminal His6 tagged recombinant full-length human PI3Kalpha/human recombinant full length p85alpha expressed in baculovirus infected Sf21 cells to IC50 for Inhibition of N-terminal His6 tagged recombinant full-length human PI3Kdelta/human recombinant full length p85alpha expressed in baculovirus infected Sf21 cells

Row | SMILES | bioavailability [1] [%] | Vdu [2] [L/kg] | bioavailability [3] [%] | Vdu [4] [L/kg] | Vd [5] [L/kg] | Papp [6] [×10⁻⁶ cm/s] | CL [7] [mL/min/kg] | half-life [8] [h] | CL [9] [mL/min/kg] | clearance [10] [mL/min/kg] | Vd [11] [L/kg] | clearance [12] [mL/min/kg] | solubility [13] [µM] | half-life [15] [h] | IC50 [16] [µM] | further results
1 | CCn1c(-c2cnc(C)nc2)nc2c(-c3ccc4c(c3)[C@@]3(CCCN3C(=O)C3CC3)C(=O)N4C)ncnc21 | 99 | 3.8 | 57 | 1 | 0.7 | 32 |  | 3 |  |  | 0.5 |  | 130 (≈ 66.1 µg/mL) | 1.1 | 8.5 | 
2 | CCn1c(-c2cnc(C)nc2)nc2c(-c3ccc4c(c3)[C@@]3(CCCN3C(=O)C3CC3)C(=O)N4)ncnc21 | 78 | 5.5 | 10 | 3.8 | 1.9 | 10 |  | 0.5 |  |  | 1.5 |  | 34 (≈ 16.8 µg/mL) | 0.5 |  | 
3 | CCn1c(-c2cnc(C)nc2)nc2c(-c3ccc4c(c3)[C@](C)(N[C@H]3CCOC3)C(=O)N4)ncnc21 |  | 6.5 | 14 | 6.5 | 3.7 | 14 |  | 1.6 | 160 | 44 | 4.2 | 32 | 180 (≈ 84.7 µg/mL) | 1.4 |  | 
4 | CCn1c(-c2cnc(C)nc2)nc2c(-c3ccc4c(c3)[C@](C)(CC3CCO3)C(=O)N4)ncnc21 (stereo not given in full) |  | 6 |  | 3.5 | 2.4 |  | 250 | 1 | 99 | 27 | 1.7 | 24 |  | 1 |  | 
5 | CCn1c(-c2cnc(C)nc2)nc2c(-c3ccc4c(c3)[C@@]3(CCCN3C(C)C)C(=O)N4)ncnc21 |  | 14 |  | 11 | 3.1 |  |  | 1 |  |  | 2.2 |  | 56 (≈ 26.2 µg/mL) | 0.6 |  | 
6 | Cc1ncc(-c2nc3c(-c4cnc5c(c4)[C@](C)(N[C@H]4CCOC4)C(=O)N5)ncnc3n2C)cn1 |  | 3.1 |  | 0.3 | 2.4 |  | 3 | 2 | 240 | 58 | 0.2 | 1.9 | 140 (≈ 64 µg/mL) | 1.1 | 8.2 | 
7 | CCn1ncc(-c2nc3c(-c4ccc5c(c4)[C@](C)(CC4CC4)C(=O)N5)ncnc3n2C)c1C |  |  |  |  |  |  |  |  |  |  |  |  |  |  | 0.017 | 
8 | Cc1ncc(-c2nc3c(-c4ccc5c(c4)[C@@]4(CCCN4C(=O)C4CC4)C(=O)N5C)ncnc3n2C)cn1 | 82 | 6.1 | 100 | 1.5 | 1.4 | 31 | 14 | 2 | 130 | 22 | 0.8 | 6.1 | 140 (≈ 69.2 µg/mL) | 1.4 | 9.1 | IC50 [17]: > 30 µM; IC50 [18]: > 30 µM; IC50 [19]: > 50 µM; IC50 [20]: > 50 µM; IC50 [21]: > 50 µM; IC50 [22]: > 30 µM; AUC [23]: 490 µM·h; IC50 [24]: > 50 µM
9 | CCn1c(-c2cnc(C)nc2)nc2c(-c3ccc4c(c3)[C@](C)(NCC(C)(C)F)C(=O)N4)ncnc21 | 25 | 6.3 | 58 | 8.7 | 3 | 27 |  | 1.4 | 89 | 28 | 2.9 | 39 | 130 (≈ 61.7 µg/mL) | 1.6 |  | 
10 | CCn1c(-c2cnc(C)nc2)nc2c(-c3ccc4c(c3)[C@](C)(NCC(C)(F)F)C(=O)N4)ncnc21 |  | 6.9 |  | 3.9 | 3.3 |  |  | 1.1 |  |  | 1.7 |  | 120 (≈ 57.4 µg/mL) | 1.9 |  | 
11 | Cc1ncc(-c2nc3c(-c4ccc5c(c4)[C@@]4(CCCN4C(=O)C4CC4)C(=O)N5)ncnc3n2C)cn1 |  | 4.6 |  | 2.7 | 1.9 | 9 | 27 | 1.3 | 290 | 49 | 1.4 | 9.6 | 130 (≈ 62.5 µg/mL) | 0.6 | 10 | 
12 | Cn1cnc2c(-c3ccc4c(c3)[C@](C)(CC3CC3)C(=O)N4)ncnc21 |  |  |  |  |  |  |  |  |  |  |  |  |  |  | 3.1 | 
13 | CCn1ncc(-c2nc3c(N4CCC(n5c(=O)[nH]c6ncccc65)CC4)ncnc3n2C)c1C |  |  |  |  |  |  |  |  |  |  |  |  |  |  |  | Ratio IC50 [25]: 71

Now from value to compound, other results behind:

Row | bioavailability [1] [%] | Vdu [2] [L/kg] | bioavailability [3] [%] | Vdu [4] [L/kg] | Vd [5] [L/kg] | Papp [6] [×10⁻⁶ cm/s] | CL [7] [mL/min/kg] | half-life [8] [h] | CL [9] [mL/min/kg] | clearance [10] [mL/min/kg] | Vd [11] [L/kg] | clearance [12] [mL/min/kg] | solubility [13] [µM] | half-life [15] [h] | IC50 [16] [µM] | SMILES | further results
14 | 100 | 5 | 61 | 3.3 | 2.4 | 24 | 6 | 9.3 | 29 | 12 | 1.4 | 2.5 | 115 (≈ 54.7 µg/mL) | 2.5 |  | CCn1c(-c2cnc(C)nc2)nc2c(-c3cnc4c(c3)[C@](C)(NCC(C)(C)F)C(=O)N4)ncnc21 | AUC [14]: 390 µM·h
15 |  | 6.3 | 28 | 6.5 | 1.9 | 27 |  | 1.8 |  |  | 2.8 |  | 120 (≈ 58.1 µg/mL) | 0.6 |  | CCn1c(-c2cnc(C)nc2)nc2c(-c3ccc4c(c3)[C@](C)(N3CC(C)(OC)C3)C(=O)N4)ncnc21 | 
16 |  | 3.1 |  |  | 2.1 | 25 |  |  |  |  |  |  | 140 (≈ 63.8 µg/mL) | 3 |  | CCn1c(-c2cnc(C)nc2)nc2c(-c3cnc4c(c3)[C@](C)(NC3CCC3)C(=O)N4)ncnc21 | 
17 |  | 7.3 |  |  | 2.4 | 30 |  |  | 930 | 66 |  |  | 130 (≈ 59.1 µg/mL) | 0.6 |  | CCn1c(-c2cnc(C)nc2)nc2c(-c3ccc4c(c3)[C@](C)(NC3CCC3)C(=O)N4)ncnc21 | 
18 | 91 | 4.9 | 33 | 1.6 | 3.8 | 5.7 |  | 3.4 |  |  | 1.2 |  | 150 (≈ 70.7 µg/mL) | 3 | > 10 | CCn1c(-c2cnc(C)nc2)nc2c(-c3cnc4c(c3)[C@](C)(N[C@H]3CCOC3)C(=O)N4)ncnc21 | 
19 |  | 3.3 |  | 2.1 | 1.7 | 24 | 16 | 2 | 18 | 8.1 | 1.3 | 7.4 | 160 (≈ 77.7 µg/mL) | 2.8 |  | CCn1c(-c2cnc(C)nc2)nc2c(-c3cnc4c(c3)[C@](C)(N3CC(C)(OC)C3)C(=O)N4)ncnc21 | 
